# Publication PMC8111499, “GW117: A novel serotonin (5‐HT2C) receptor antagonist and melatonin (MT1/MT2) receptor agonist with potential antidepressant‐like activity in rodents” (CNS Neuroscience & Therapeutics, 2021)
# Tests used:
# [1] = biological target: T1, 5‐HT2C receptor from rat hippocampal membranes (Rattus norvegicus, UniProt P08909); assay: [35S]‐GTPγS and [3H]PIP assays, blockade of 5‐HT activation; assay type: biochemical; conditions: 10 nM 5‐HT
# T1 construct: 5‐HT2C receptor from rat hippocampal membranes (C‐D); from tissue; host or cells: rat hippocampus
# T1 sequence (P08909 33-460): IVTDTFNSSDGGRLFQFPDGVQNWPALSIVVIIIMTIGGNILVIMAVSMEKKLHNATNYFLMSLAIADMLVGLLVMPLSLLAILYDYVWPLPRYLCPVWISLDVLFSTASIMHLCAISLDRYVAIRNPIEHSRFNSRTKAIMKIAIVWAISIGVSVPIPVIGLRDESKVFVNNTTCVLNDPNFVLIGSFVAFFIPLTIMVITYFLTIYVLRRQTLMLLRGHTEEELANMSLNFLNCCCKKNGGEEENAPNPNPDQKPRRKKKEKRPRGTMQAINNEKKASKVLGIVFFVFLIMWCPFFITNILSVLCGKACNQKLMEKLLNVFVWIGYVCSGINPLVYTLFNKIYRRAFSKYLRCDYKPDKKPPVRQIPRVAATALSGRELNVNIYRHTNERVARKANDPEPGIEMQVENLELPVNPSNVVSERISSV
# Description: (§1) This experiment was mentioned earlier. ^27 In short, HEK293 cell membrane stably expressing human 5‐HT2C receptors or rat hippocampal tissue membrane or MT1/MT2 receptors was re‐suspended in buffer (50 mmol/L Tris, 100 mmol/L NaCl, 5 mmol/L MgCl2·6H2O, 0.1 mmol/L EDTA‐Na2·6H2O, 0.2 mmol/L EGTA, pH 7.4) and incubated with the test compound (100 μM GDP, 0.2 nM [^35S]‐GTP, or [^3H]PIP) for 60 min at 28℃. At the end of the experiment, Whatman GF/C filters pre‐soaked with distilled water were used for rapid filtration followed by washing with 5 ml of ice‐cold Tris buffer. Determination of non‐specific binding in the presence of GTPγS and radioactivity was measured by liquid scintillation counting. Calculation of the concentration produces a half‐maximal effect (EC50) and the maximal increase above the baseline value.
# CUS rats = assay: Open field test in chronic unpredictable stress (CUS) rats; assay type: in vivo; conditions: CUS rats, 5, 10, 20, 40 mg/kg p.o., 4‐week stress, vs. CUS‐vehicle
# Description: In order to further examine the antidepressant effects of GW117, chronic unpredictable stress (CUS) model was utilized; the methods were as described before. ^29 , ^31 After 1 week of training, rats underwent sucrose training of 48 h. After training, a sucrose baseline test was performed. […] Gastric gavage was given 1 h before the stress (08:00–09:00). Except for the non‐stressed group, all rats were stimulated by a series of stressors. stress methods included the following: fast on food and water (24 h), moisture cage (150 g sawdust bedding in 200 ml water), overnight illumination, low‐intensity strobe illumination (100 flashes/min), forced swimming (5 min at 10℃), white noise (110 dB), tail pinch (1 cm from tail root, 6 min), 45℃ cage tilt, and restraint (1–2 h). Stressors need to be used continuously and randomly. Non‐stressed rats received free food and water, but were required to fast for 14 h before sucrose preference test. After 4 weeks of stress, the sucrose preference test (SPT) (on day 25), open field test (OFT) (on day 28), and novelty‐suppressed feeding (NSF) test (on day 29) were carried out.
# The OFT device was a chamber (diameter, 122 cm; height, 45 cm) that was grouped equally into 16 sections. 24 h after the last administration, rats were put into the center of the chamber and the numbers of crossings and readings were recorded in 5 min.
# MT1 receptor [2] = biological target: T2, MT1 receptor (Homo sapiens, UniProt P48039); assay: [35S]‐GTPγS binding assay, MT1; assay type: biochemical
# T2 construct: purchased Perkin‐Elmer ES‐620
# T2 sequence (P48039 whole entry): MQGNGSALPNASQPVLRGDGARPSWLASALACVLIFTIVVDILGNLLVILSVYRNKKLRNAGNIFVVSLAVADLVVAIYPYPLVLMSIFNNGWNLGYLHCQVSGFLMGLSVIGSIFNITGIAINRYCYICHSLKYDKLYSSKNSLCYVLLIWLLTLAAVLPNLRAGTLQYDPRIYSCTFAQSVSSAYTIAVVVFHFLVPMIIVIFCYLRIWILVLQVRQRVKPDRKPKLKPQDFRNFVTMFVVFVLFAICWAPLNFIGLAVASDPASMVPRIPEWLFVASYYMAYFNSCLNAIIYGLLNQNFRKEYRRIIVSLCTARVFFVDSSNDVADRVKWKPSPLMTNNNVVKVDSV
# Description: as §1
# [3] = previous study; cited from earlier work
# mice = assay: Learned helplessness paradigm in mice; assay type: in vivo, ICR mice; conditions: sub‐chronic, fourth day after inescapable shock training, vs stress
# Description: For 4 consecutive days, mice were putted into the shuttle box device (40 × 10 × 13 cm), the device was splited into two compartments, and mice could free access. In the IS group, each mouse received 360 inescapable shocks (current intensity 0.30 mA, duration 2 s, 3‐13 s variable interval, about 1 h) over four consecutive training days. Animals in the NIS group underwent the same handling without receiving the foot shocks. 10 trials were conducted on mice to screen helpless, each of which includes conditioned stimulation period (3‐s lamp on), non‐conditioned stimulation period (3‐s lamp +shock), and interval period (without any stimulus, 25 s). […] The EF values were balanced for each group in the experiment. Using Graphic State software (Coulbourn Instruments Inc.,) recorded the number of escape failures and the latency to escape.
# MT1 receptor [4] = biological target: T2, MT1 receptor; assay: MT1 receptor binding assay ([3H]‐melatonin competition); conditions: mean ± SEM, three independent experiments
# Description: The stably transfected 5‐HT2C receptor HEK293 cell line was prepared using a nucleus‐cytoplasm‐membrane preparation kit (Applagin Technologies Inc.). Briefly, cells were harvested at 4°C, 110 00 × g and centrifugation for 5 min. Homogenize pellets in the assay buffer (50 mM Tris‐HCl buffer containing 120 mM NaCl and 5 mM KCl, pH 7.4) and then centrifuged twice at 4°C, 36,000 × g for 15 min. Finally, pellets were re‐suspended in assay buffer and stored it at −80°C until it is used for in vitro experiments.
# Receptor membrane protein, MT1 or MT2 (10 μl), was added to all pipes. Non‐specific binding was determined by the presence of unlabeled 10 µM melatonin and pre‐reacted for 30 min. In test tubes, 30 μl of test drugs (MT1: concentration, 10^−4–10^−10 M; MT2: concentration, 10^−4–10^−11 M) was added. Additionally, 40 μl [^3H]‐melatonin was added to all tubes. The volume in all reaction tubes was made up to 300 μl with Tris‐HCl buffer (50 mM, pH 7.4). Reactions were performed at 25°C for 1 h. The mixture was then spotted onto a type 49 glass fiber filter paper, suction filtered under vacuum, rinsed three times with 2 ml ice‐cold Tris‐HCl buffer (50 mM, pH 7.4), and dried by suction. […] Finally, 1 ml of scintillation fluid was added and then the radioactive intensity measured by liquid scintillation counting.
smiles,measurement,setting,value
[2H]C([2H])([2H])Oc1cc2c(CCNC(C)=O)cccc2cc1Cl [GW117],blockade of activation of [35S]‐GTPγS binding and [3H]PIP released by 5‐HT,[1],dose‐dependently blocked
same,number of rearings and crossings in open field,CUS rats,markedly add to the number of rearings and crossings
same,character of effect on MT1 receptor,MT1 receptor [2]; [35S]‐GTPγS binding,full agonist
same,Emax,"MT1 receptor [2]; [35S]‐GTPγS binding, read-out: maximal increase over basal binding (% Emax), MT1 receptor",104 ± 7.34%
same,EC50,"MT1 receptor [2]; read-out: EC50 of stimulation of specific [35S]‐GTPγS binding, MT1 receptor",2.49 nM
same,toxic effects compared with agomelatine,[3],lower toxic effects
same,number of failures to escape,mice; 40 mg/kg,significantly decreased the number of failures to escape
same,escape latency,mice; 20 and 40 mg/kg,decreased the escape latency
same,Ki,MT1 receptor [4],0.12 ± 0.06 nM
